Results from patent US20240391862A1, “(1,4,5-TRISUBSTITUTED-1H-PYRAZOL-3-YL)OXY-2-ALKOXY ALKYL ACIDS AND THEIR DERIVATIVES, THEIR SALTS AND THEIR USE AS HERBICIDAL AGENTS” (Bayer AKtiengesellschaft, priority 2021, published 2024).

Experiments:
VIOTR = test: Post-emergence herbicidal effect, greenhouse pot test; assay type: in vivo, Viola tricolor
Method in brief: (§1)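 Weeds sown in sandy loam, greenhouse-grown 2–3 weeks, then sprayed at one-leaf stage with WP or EC formulations in water plus 0.5% additive at 600 l/ha. Rates 20 to 320 g/ha. Visual rating after about 3 weeks versus untreated controls (100% = plants dead, 0% = like control).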

PHBPU = test: as above; assay type: in vivo, Ipomoea purpurea
Method in brief: as §1

LOLRI = test: as above; assay type: in vivo, Lolium rigidum; conditions: 320 g/ha
Method in brief: as §1

AMARE = test: as above; assay type: in vivo, Amaranthus retroflexus; conditions: visual rating about 3 weeks after treatment
Method in brief: as §1

SETVI = test: as above; assay type: in vivo, Setaria viridis
Method in brief: as §1

VERPE = test: as above; assay type: in vivo, Veronica persica
Method in brief: as §1

ORYSA = test: Post-emergence herbicidal effect and crop plant compatibility, greenhouse pot test; assay type: in vivo, Oryza sativa; conditions: 20 g/ha, visual rating about 3 weeks after treatment, crop plant
Description: • ALOMY: Alopecurus myosuroides SETVI: Setaria viridis • AVEFA: Avena fatua POLCO: Fallopia convolvulus • AMARE: Amaranthus retroflexus ECHCG: Echinochloa crus-galli • LOLRJ: Lolium rigidum STEME: Stellaria media • VERPE: Veronica persica MATIN: Tripleurospermum inodorum • DIGSA: Digitaria sanguinalis ABUTH: Abutylon threophrasti • TRZAS: Triticum aestivum VIOTR: Viola tricolor • BRSNW: Brassica napus ZEAMX: Zea mays • PHBPU: Ipomoea purpurea GLXMA: Glycine max • ORYSA: Oryza sativa HORMU: Hordeum murinum
Seeds of monocotyledonous and dicotyledonous weeds and crop plants are placed in sandy loam in plastic or organic planting pots, covered with soil and cultivated in a greenhouse under controlled growth conditions. 2 to 3 weeks after sowing, the trial plants are treated at the one-leaf stage. The compounds of the invention, formulated in the form of wettable powders (WP) or as emulsion concentrates (EC), are then sprayed onto the green parts of the plants as aqueous suspension or emulsion with addition of 0.5% additive at a water application rate of 600 l/ha (converted). After the test plants have been kept in the greenhouse under optimum growth conditions for about 3 weeks, the activity of the preparations is rated visually in comparison to untreated controls. For example, 100% activity=the plants have died, 0% activity=like control plants.
Tables 20a to 38c below show the effects/crop compatibilities of selected compounds of the general formula (I) on various harmful plants at an application rate corresponding to 20 to 320 g/ha, which were obtained by the trial procedure specified above.

POLCO = test: Post-emergence herbicidal effect, greenhouse pot test; assay type: in vivo, Fallopia convolvulus
Method in brief: as §1

ALOMY = test: as above; assay type: in vivo, Alopecurus myosuroides; conditions: visual rating about 3 weeks after treatment
Method in brief: as §1

ABUTH = test: as above; assay type: in vivo, Abutilon theophrasti; conditions: visual rating about 3 weeks after treatment
Method in brief: as §1

DIGSA = test: as above; assay type: in vivo, Digitaria sanguinalis; conditions: visual rating about 3 weeks after treatment
Method in brief: as §1

ZEAMX = test: Post-emergence herbicidal effect and crop plant compatibility, greenhouse pot test; assay type: in vivo, Zea mays; conditions: one-leaf stage, rated visually after about 3 weeks vs untreated controls
Method in brief: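 Visual % activity scored roughly 3 weeks post-spray against untreated plants, where 100% means death and 0% equals control. Plants were treated at the one-leaf stage, 2 to 3 weeks after sowing in sandy loam, at 20 to 320 g/ha.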

AVEFA = test: Post-emergence herbicidal effect, greenhouse pot test; assay type: in vivo, Avena fatua; conditions: 320 g/ha, visual rating about 3 weeks after treatment
Method in brief: as §1

ECHCG = test: as above; assay type: in vivo, Echinochloa crus-galli; conditions: for Post-emergence effect against ECHCG: 20 g/ha, visual rating about 3 weeks after treatment
Method in brief: as §1

MATIN = test: as above; assay type: in vivo, Tripleurospermum inodorum
Method in brief: as §1

various unwanted plants [1] = test: Pre-emergence effect against various unwanted plants (PE): comparative test of I-01 with compounds from WO2020/245044 (Tables 40a, 40b) and summary statements; assay type: in vivo; conditions: comparative test
Description: Seeds of monocotyledonous and dicotyledonous weed plants and crop plants are placed in plastic or organic planting pots and covered with soil. The compounds of the invention, formulated in the form of wettable powders (WP) or as emulsion concentrates (EC), are then applied to the surface of the covering soil as aqueous suspension or emulsion with addition of 0.5% additive at a water application rate equivalent to 600 l/ha. After the treatment, the pots are placed in a greenhouse and kept under good growth conditions for the trial plants. After about 3 weeks, the effect of the preparations is scored visually in comparison with untreated controls as percentages. For example, 100% activity=the plants have died, 0% activity=like control plants. Tables 40a and 40b below show the effects of the inventive compound (I-01) with structurally similar compounds (from WO2020/245044) on various harmful plants at an application rate corresponding to 320 g/ha or less, which have been obtained by the trial procedure specified hereinafter. The inventive compound (I-01) differs here by variance of a significant structural feature from the structurally similar compound with regard to the R^2 radical. Seeds of monocotyledonous and dicotyledonous weed plants and crop plants are placed in plastic or organic planting pots and covered with soil. The compounds of the invention, formulated in the form of wettable powders (WP) or as emulsion concentrates (EC), are then applied to the surface of the covering soil as aqueous suspension or emulsion with addition of 0.5% additive at a water application rate equivalent to 600 l/ha. After the treatment, the pots are placed in a greenhouse and kept under good growth conditions for the trial plants. After about 3 weeks, the effect of the preparations is scored visually in comparison with untreated controls as percentages. For example, 100% activity=the plants have died, 0% activity=like control plants. Effects/crop compatibilities of selected compounds (Table 39) on various harmful plants at an application rate corresponding to 80 to 320 g/ha that have been obtained by the trial procedure specified hereinabove are shown in Tables 40a and 40b below.

various unwanted plants [2] = test: Post-emergence effect against various unwanted plants (PO): comparative test of I-01 with compounds from WO2020/245044 (Tables 41a, 41b) and summary statements; assay type: in vivo; conditions: 80 g/ha, comparative test
Method: Seeds of monocotyledonous and dicotyledonous weeds and crop plants are placed in sandy loam in plastic or organic planting pots, covered with soil and cultivated in a greenhouse under controlled growth conditions. 2 to 3 weeks after sowing, the trial plants are treated at the one-leaf stage. The compounds of the invention, formulated in the form of wettable powders (WP) or as emulsion concentrates (EC), are then sprayed onto the green parts of the plants as aqueous suspension or emulsion with addition of 0.5% additive at a water application rate of 600 l/ha (converted). After the test plants have been kept in the greenhouse under optimum growth conditions for about 3 weeks, the activity of the preparations is rated visually in comparison to untreated controls. For example, 100% activity=the plants have died, 0% activity=like control plants. […] Tables 41a and 41b below show the effects of the inventive compound (I-01) with structurally similar compounds (WO2020/245044) on various harmful plants at an application rate corresponding to 320 g/ha or less, which have been obtained by the trial procedure specified hereinafter. The inventive compound (I-01) differs here by variance of a significant structural feature from the structurally similar compound with regard to the R^2 radical. Seeds of monocotyledonous and dicotyledonous weeds and crop plants are placed in sandy loam in plastic or organic planting pots, covered with soil and cultivated in a greenhouse under controlled growth conditions. 2 to 3 weeks after sowing, the trial plants are treated at the one-leaf stage. The compounds of the invention, formulated in the form of wettable powders (WP) or as emulsion concentrates (EC), are then sprayed onto the green parts of the plants as aqueous suspension or emulsion with addition of 0.5% additive at a water application rate of 600 l/ha (converted). After the test plants have been kept in the greenhouse under optimum growth conditions for about 3 weeks, the activity of the preparations is rated visually in comparison to untreated controls. For example, 100% activity=the plants have died, 0% activity=like control plants. Effects/crop compatibilities of selected compounds (see Table 39) on various harmful plants at an application rate corresponding to 80 to 320 g/ha that have been obtained by the trial procedure specified hereinafter are shown in Tables 41a and 41b below.

| SMILES | Post-emergence effect against VIOTR in % (VIOTR; 80 g/ha) | Post-emergence effect against VIOTR in % (VIOTR; 320 g/ha) | Post-emergence effect against PHBPU in % (PHBPU; 80 g/ha) | Post-emergence effect against PHBPU in % (PHBPU; 320 g/ha) | Post-emergence effect against AMARE (AMARE; 320 g/ha) | Post-emergence effect against SETVI in % (SETVI; 80 g/ha) | Post-emergence effect against SETVI in % (SETVI; 320 g/ha) | Post-emergence effect against VERPE in % (VERPE; 80 g/ha) | Post-emergence effect against VERPE in % (VERPE; 320 g/ha) | Post-emergence effect against ORYSA (ORYSA) | Post-emergence effect against POLCO in % (POLCO; 320 g/ha) | Post-emergence effect against ALOMY (ALOMY; 320 g/ha) | Post-emergence effect against ABUTH (ABUTH; 320 g/ha) | Post-emergence effect against DIGSA (DIGSA; 320 g/ha) | Post-emergence effect at 20 g/ha against ZEAMX in % (ZEAMX) | Post-emergence effect against AVEFA (AVEFA) | Post-emergence effect against ECHCG in % (ECHCG; 80 g/ha) | Post-emergence effect against ECHCG in % (ECHCG; 320 g/ha) | Post-emergence effect against MATIN in % (MATIN; 80 g/ha) | Post-emergence effect against MATIN in % (MATIN; 320 g/ha) | further results |
| --- | --- | --- | --- | --- | --- | --- | --- | --- | --- | --- | --- | --- | --- | --- | --- | --- | --- | --- | --- | --- | --- |
| COC(=O)C(C)COC(=O)C(OC)Oc1nn(-c2ccccc2F)c(-c2ccc(F)nc2)c1Br (racemic) [Example I-10] | 80% | 90% | 80% | 90% | 100% | 80% | 90% | 90% | 90% | 10% | 80% | 90% | 90% | 90% | 20% | 80% | 90% | 100% | 80% | 90% | Post-emergence effect against LOLRI in % (LOLRI): 90%; Post-emergence effect against AMARE (AMARE; 20 g/ha): 80%; Post-emergence effect against AMARE (AMARE; 80 g/ha): 80%; Post-emergence effect against POLCO in % (POLCO; 20 g/ha): 80%; Post-emergence effect against POLCO in % (POLCO; 80 g/ha): 80%; Post-emergence effect against ABUTH (ABUTH; 20 g/ha): 80%; Post-emergence effect against ABUTH (ABUTH; 80 g/ha): 90%; Post-emergence effect against ECHCG (ECHCG): 80%; Post-emergence effect against MATIN in % (MATIN; 20 g/ha): 80% |
| COC(=O)CCOC(=O)C(OC)Oc1nn(-c2ccccc2F)c(-c2ccc(F)nc2)c1Br (single isomer, unassigned) [Example I-13] |  | 80% |  | 90% | 80% | 80% | 90% | 80% | 80% | 10% | 80% | 90% | 80% | 90% | 10% | 80% | 90% | 90% | 80% | 80% | Post-emergence effect against LOLRI in % (LOLRI): 80%; Post-emergence effect against POLCO in % (POLCO; 80 g/ha): 80%; Post-emergence effect against ALOMY (ALOMY; 80 g/ha): 80%; Post-emergence effect against DIGSA (DIGSA; 80 g/ha): 90%; Post-emergence effect at 80 g/ha against ZEAMX in % (ZEAMX): 20%; Post-emergence effect against ECHCG (ECHCG): 80% |
| COC(=O)CCOC(=O)C(OC)Oc1nn(-c2ccccc2F)c(-c2ccc(F)nc2)c1Br (single isomer, unassigned) [Example I-20] | 80% | 90% | 80% | 90% | 90% | 80% | 80% | 80% | 90% | 0% | 80% | 80% | 90% | 90% | 0% | 90% | 80% | 90% | 80% | 90% | Post-emergence effect against AMARE (AMARE; 80 g/ha): 80%; Post-emergence effect against ABUTH (ABUTH; 80 g/ha): 80%; Post-emergence effect at 80 g/ha against ZEAMX in % (ZEAMX): 20% |
| CCOC(=O)C(F)Oc1nn(-c2ccccc2F)c(-c2ccc(F)nc2)c1Br (stereo not drawn) [C] |  |  |  |  |  |  |  |  |  |  |  |  |  |  |  |  |  |  |  |  | Pre-emergence effect, Effect %, ALOMY (various unwanted plants [1]; ALOMY, 320 g/ha): 80%; Pre-emergence effect, Effect %, ECHCG (various unwanted plants [1]; 80 g/ha): 0%; Pre-emergence effect, Effect %, ECHCG (various unwanted plants [1]; 320 g/ha): 70%; Pre-emergence effect, Effect %, LOLRI (various unwanted plants [1]; 80 g/ha): 10%; Pre-emergence effect, Effect %, LOLRI (various unwanted plants [1]; 320 g/ha): 90%; Pre-emergence effect, Effect %, MATIN (various unwanted plants [1]; 80 g/ha): 70%; Pre-emergence effect, Effect %, MATIN (various unwanted plants [1]; 320 g/ha): 80%; Pre-emergence effect, Effect %, POLCO (various unwanted plants [1]; POLCO, 80 g/ha): 50%; Pre-emergence effect, Effect %, SETVI (various unwanted plants [1]; SETVI, 320 g/ha): 70%; Post-emergence effect, Effect %, ALOMY (various unwanted plants [2]; ALOMY): 50%; Post-emergence effect, Effect %, AVEFA (various unwanted plants [2]; AVEFA): 60%; Post-emergence effect, Effect %, ECHCG (various unwanted plants [2]; ECHCG): 80%; Post-emergence effect, Effect %, LOLRI (various unwanted plants [2]; LOLRI): 10%; Post-emergence effect, Effect %, SETVI (various unwanted plants [2]; SETVI): 70% |
